Consider four molecules from patent US11319313B2, “Crystalline forms of deuterium-enriched pioglitazone” (Poxel SA, priority 2020, dated 2022).

Series [1] can be described thus: Dog pharmacokinetic (PK) study, single oral administration. The series is classed as in vivo, Beagle dogs. The conditions noted are these: dog, in vivo; for AUC0-24, Total Pio / AUC0-24, Total R-pio / AUC0-24, Total S-pio / Cmax, Total Pio / Cmax, Total R-pio / Cmax, Total S-pio / T1/2z, Total Pio / T1/2z, Total R-pio / T1/2z, Total S-pio / Tmax, Total Pio / Tmax, Total R-pio / Tmax, Total S-pio: po. How it is done:
The 3 Beagle male dogs were fasted before dosing. Then all test drugs were administered by the oral route using API in a capsule. [table] Food was given no sooner than one hour after dose administration on the days of treatment. Each administration was separated by a wash-out period of at least 2 days. […] Predose (just before dosing) and then […] after dosing.

Series [2] in a line: pH-dependent solubility of crystalline salts (48 h equilibration, HPLC). Format: physicochemical. The note with it: for Solubility: Water, room temperature, 48 hours; for solubility at 48 h: 22 °C, thermodynamic from solid. The procedure:
The pH-dependent solubility profiles of the crystalline DCl salt form of deuterium-enriched (R)-pioglitazone, and crystalline pioglitazone HCl were determined at room temperature (about 21° C. to about 23° C.) in the pH range of 0.3-7.6. For the crystalline HCl salt form of deuterium-enriched (R)-pioglitazone, the pH-dependent solubility profile was measured at room temperature (about 21° C. to about 23° C.) in the pH range of 0.3-3.5.
For the crystalline DCl salt form of deuterium-enriched pioglitazone, the pH-dependent solubility profile was measured at room temperature (about 21° C. to about 23° C.) in the pH range of 0.7-3.5.
Suspensions of the three crystalline forms were prepared in water or USP buffer solutions. The pH of the suspensions was adjusted through the addition of 0.1 M HCl or 0.1 M NaOH. For the preparation of suspensions with a pH of 0.5 or lower, the pH was adjusted using 1 M HCL.
The suspensions were then allowed to equilibrate at room temperature (about 21° C. to about 23° C.) for 48 hours. After equilibration the solid phases were separated from the liquid phases by centrifugation, subsequently dried and then analyzed by XRPD. The concentration of deuterium-enriched (R)-pioglitazone or pioglitazone in the liquid phases (mother liquors) was determined by HPLC (see HPLC method described in Example 5).

The structures appear in SMILES notation. Counter-ions that a name gives are not always drawn. Marks after values point to notes of the source that are not given here.

As for `[2H]C1(Cc2ccc(OCCc3ccc(CC)cn3)cc2)SC(=O)NC1=O` (racemic) [PXL061, deuterium-enriched pioglitazone], in series [1], the “Frel vs PXL061 (relative oral bioavailability), Total Pioglitazone” value is recorded as 1. Moreover, in series [1] (10 mg/kg), the “AUC0-24, Total Pio” value came to 4800 ng·h/mL; the “AUC0-24, Total R-pio” value is 2650 ng·h/mL; the “AUC0-24, Total S-pio” value turned out to be 2150 ng·h/mL; the “Cmax, Total Pio” value was determined as 1310 ng/mL. For the same molecule, in series [1] (10 mg/kg), the “Cmax, Total R-pio” value is 638 ng/mL; the “Cmax, Total S-pio” value is on record as 683 ng/mL; the “T1/2z, Total Pio” value is reported as 4.03 h; the “T1/2z, Total R-pio” value is 2.78 h. Moreover, in series [1] (10 mg/kg), the “T1/2z, Total S-pio” value was 3.61 h; the “Tmax, Total Pio” value is reported as 1 h; the “Tmax, Total R-pio” value is recorded as 1 h; the “Tmax, Total S-pio” value is given as 1 h.

Turning to `[2H]Cl.[2H]N1C(=O)SC([2H])(Cc2ccc(OCCc3ccc(CC)cn3)cc2)C1=O` (racemic) [deuterium-enriched pioglitazone], the Solubility (in general, the concentration that dissolves in the medium under given conditions) was 5240 µg/mL in series [2] (filtered mother liquor pH 0.7); 2490 µg/mL in series [2] (filtered mother liquor pH 0.9); 1630 µg/mL in series [2] (filtered mother liquor pH 1.1); 420 µg/mL in series [2] (filtered mother liquor pH 1.6); under 30 µg/mL in series [2] (filtered mother liquor pH 3.1); under 30 µg/mL in series [2] (filtered mother liquor pH 4.8). For the same molecule, the “pH-dependent solubility behavior (in words)” value in series [2] (pH range 0.7-3.5) was “behavior similar to that of pioglitazone HCl”.

As for `[2H][C@@]1(Cc2ccc(OCCc3ccc(CC)cn3)cc2)SC(=O)NC1=O` [PXL064, deuterium-enriched (S)-pioglitazone], in series [1] (5 mg/kg), the “AUC0-24, Total Pio” value was found to be 1410 ng·h/mL; the “AUC0-24, Total R-pio” value was determined as 203 ng·h/mL; the “AUC0-24, Total S-pio” value came out at 1200 ng·h/mL; the “Cmax, Total Pio” value stood at 588 ng/mL. Besides, in series [1] (5 mg/kg), the “Cmax, Total R-pio” value worked out at 54.0 ng/mL; the “Cmax, Total S-pio” value is on record as 538 ng/mL; the “T1/2z, Total Pio” value is reported as 1.73 h; the “T1/2z, Total R-pio” value is 1.91^a h. Moreover, in series [1] (5 mg/kg), the “T1/2z, Total S-pio” value is on record as 1.75 h; the “Tmax, Total Pio” value is on record as 2 h; the “Tmax, Total R-pio” value was 2 h; the “Tmax, Total S-pio” value is given as 2 h.

With `CCc1ccc(CCOc2ccc(CC3SC(=O)NC3=O)cc2)nc1` (stereo not shown) [Pioglitazone HCl Salt, pioglitazone hydrochloride, reference compound], the “Solubility (in words)” value in series [2] is recorded as “practically insoluble”. Further, the solubility (as a rule, the dissolved amount per volume that the medium holds) at 48 h in series [2] (pH 0.6, aqueous buffer) is 2880 µg/mL; in series [2] (pH 0.7, aqueous buffer) it was 4000 µg/mL; in series [2] (pH 1.2, simulated gastric fluid), 670 µg/mL; in series [2] (pH 1.6, simulated gastric fluid) it was 440 µg/mL; in series [2] (pH 3, aqueous buffer), 30 µg/mL; in series [2] (pH 4.5, aqueous buffer), under 30 µg/mL. Also, the solubility at 48 h in series [2] (pH 4.6, aqueous buffer) is under 30 µg/mL; in series [2] (pH 5.6, aqueous buffer), under 30 µg/mL; in series [2] (pH 6.6, aqueous buffer), under 30 µg/mL; in series [2] (pH 7.6, aqueous buffer), under 30 µg/mL.
